Source: patent US6630447B2, “Peptide inhibitors of LFA-1/ICAM-1 interaction” (University of New Mexico, priority 2000, dated 2003)
Like-named read-outs stand apart in the source and are kept apart here. Bridge positions count the residues as written; N and C are the ends. Peptide text beside a SMILES is read from it.

Assays:
[1] = system: LFA-1/ICAM-1 mediated JY cell aggregation; assay type: cell-based; details: for Percent Inhibition: (1 − (Observed/Max) × 100); for Percent Inhibition / Percent JY Aggregation: (SD) in parentheses; for Inhibition of LFA-1/ICAM-1 mediated JY cell aggregation compared to SEQ ID NO: 1 (in words): substituted derivatives of the consensus peptide
Protocol: LFA-1 dependent cell aggregation has been previously studied using an aggregation assay it with a variety of leukocyte subclasses and cell lines (Larson et al., 1990; Wang et al., 1988; Larson et al., 1997). JY cells were obtained form American Type Tissue Culture Collection and were maintained in RPMI 1640 supplemented with 10% FBS at 37° C. in 5% CO2. Aggregation of cells was measured in a homotypic aggregation assay using ICAM-1 as a stimuli. JY cells were washed twice with serum free medium and resuspended at a concentration of 4×10^5 is cells/ml. Cells were preincubated with the desired concentration of peptide for 15 min at room temperature. In a final volume of 100 μl, 50 μl of cells and peptide were seeded in 96 well flat bottomed microtiter plates. Cells were allowed to aggregate at 37° C. in humidified air with 5% CO2. Cells were visualized and counted by inverted phase contrast microscopy at the time indicated. Within each well of aggregates as well as the total number of free (single) cells were counted. percent aggregation was determined by the following equation:
Percent aggregation=100×(1−number of free cells/total number of cells)
The consensus peptide (SEQ ID NO: 1) and the randomized sequence CLMIRMLRC (SEQ ID NO: 33), cyclizied in the disulfide-linked form, were synthesized by Biopeptide (San Diego, Calif.) and tested in a screening assay for the ability to inhibit aggregation of the cell line JY, which aggregates in an LFA-1/CAM-1 dependent manner. Aggregation measurements are relatively rapid and quantifiable. Furthermore, small volumes are used minimizing peptide consumption. Finally, cell aggregation in vitro depends on a multivalent LFA-1/ICAM-1 interaction. A peptide that is identified as being able to block cell aggregation in vitro is, therefore, likely to have affinity and off-rate characteristics that would make it an effective in vivo inhibitor, since cell—cell interaction in vivo also involves multivalent LFA-1/ICAM-1 interaction. Using this assay, the consensus peptide sequence has an IC50 of 500 μM (FIG. 1).
Peptides are initially tested for their ability to block LFA-1/ICAM dependent aggregation of the cell line JY (Wang et al., 1988; Larson et al., 1997). Peptides are preferably tested over a range of concentrations ([…], for example) and the concentration leading to half maximal inhibition of aggregation (IC50) is determined for all the peptide sequences.

[2] = system: neutrophil binding to stimulated endothelial cells; experiment: Firm attachment of neutrophils to stimulated endothelial cells in a parallel plate flow chamber; assay type: cell-based, human; details: for Percent Inhibition of firm attachment of neutrophils: (1 − (Observed/Maximum)) × 100; for Percent Inhibition of firm attachment of neutrophils / Firmly attached neutrophils, Cells/mm^2: (SD) in parentheses; for Neutrophil-binding to endothelium (in words): physiologic flow conditions; for Firmly attached neutrophils, Cells/mm^2: physiologic flow
Excerpt: An assay has been developed that provides an in vitro model of neutrophils or APL cells binding to activated endothelium. The binding of APL cells using a parallel plate flow chamber recapitulates events that occur in retinoic acid syndrome (Larson et al., 1997; Brown et al., 1999). A parallel plate flow chamber simulates the physiologic flow conditions in blood and adhesive interactions in post-capillary venules. Post-capillary venules are the physiologically relevant locations of leukemia cell-endothelial cell interaction and extravasation. […] Monolayers of endothelial cells are placed in the parallel plate flow chamber, and the leukemic cells are pumped through the chamber at physiologic flow rates. The interaction between the flowing leukemia cells and the endothelium are videotaped microscopically, and the number of rolling, firmly adhered and transmigrated leukemia cells is quantified by computer-assisted image analysis.
For investigating neutrophil binding, neutrophils are isolated from heparin anticoagulated venous blood of healthy adult donors by centrifugation on Ficoll-Hypaque density gradients as described by Simon et al. (1992). Isolated neutrophils are suspended at a concentration of 10^7/ml in Hanks' Balanced Salt Solution supplemented with 10 mmol/L HEPES, pH 7.4 and 0.2% human serum albumin (Armour Pharmaceutical, Kankakee, Ill.) and used within 2 hours of preparation. Neutrophils are kept on ice and resuspended in RPMi pre-warmed to 37° C. immediately before use.

[3] = Solubility of peptides in aqueous solution; assay type: physicochemical
Excerpt: An alternative derivative peptide strategy was undertaken in which the consensus sequence peptide was subjected to an alanine-screening procedure as described by Cunningham and Wells, 1989. Peptides cyclizied in the disulfide-linked form were synthesized by Biopeptide (San Diego, Calif.) wherein an alanine was substituted at each position in the hepatapeptide LLRMRSI of the consensus sequence SEQ ID NO: 1, and each peptide was examined in parallel for its ability to inhibit LFA-1/ICAM-1 mediated JY cell aggregation. Six of the seven peptides were soluble in aqueous solution. SEQ ID NO: 376, representing a substitution of the arginine in position 4 of SEQ ID NO: 1, was not soluble at […] and could not be tested. […] The randomized sequence CLRLSRIMC (SEQ ID NO: 56) was used as a control.

[4] = Table 4, homologous amino acid substitutions
[5] = Table 3, alanine-substituted derivations

## CLLRMRSVC (OTHER INFORMATION: Description of Artificial Sequence:Synthetic) [SEQ ID NO: 48]
[1]; Table 4, JY cell aggregation
  Percent Inhibition: 92(3) Percent
[1]; [4]
  Percent JY Aggregation: 4(1) Percent
[1]
  Inhibition of LFA-1/ICAM-1 mediated JY cell aggregation compared to SEQ ID NO: 1 (in words): greater inhibition

## CLLRARSIC (OTHER INFORMATION: Description of Artificial Sequence:Synthetic) [SEQ ID NO: 37]
[1]; Table 3, JY cell aggregation
  Percent Inhibition: 5(14) Percent
[1]; [5]
  Percent JY Aggregation: 72(11) Percent
[1]
  Inhibition of LFA-1/ICAM-1 mediated JY cell aggregation compared to SEQ ID NO: 1 (in words): Loss of inhibitory function

## CVLRMRSAC (OTHER INFORMATION: Description of Artificial Sequence:Synthetic) [SEQ ID NO: 42]
[1]; Table 4, JY cell aggregation
  Percent Inhibition: 56(6) Percent
[1]; [4]
  Percent JY Aggregation: 24(3) Percent

## CLLRMRAIC (OTHER INFORMATION: Description of Artificial Sequence:Synthetic) [SEQ ID NO: 39]
[1]; Table 3, JY cell aggregation
  Percent Inhibition: 27(21) Percent
[1]; [5]
  Percent JY Aggregation: 56(16) Percent
[1]
  Inhibition of LFA-1/ICAM-1 mediated JY cell aggregation compared to SEQ ID NO: 1 (in words): no significant effect

## CILRMRSAC (OTHER INFORMATION: Description of Artificial Sequence:Synthetic) [SEQ ID NO: 43]
[1]; Table 4, JY cell aggregation
  Percent Inhibition: 92(9) Percent
[1]; [4]
  Percent JY Aggregation: 4(5) Percent
[1]
  Inhibition of LFA-1/ICAM-1 mediated JY cell aggregation compared to SEQ ID NO: 1 (in words): greater inhibition

## CLLRMRSLC (OTHER INFORMATION: Description of Artificial Sequence:Synthetic) [SEQ ID NO: 47]
[1]; Table 4, JY cell aggregation
  Percent Inhibition: −12(13) Percent
[1]; [4]
  Percent JY Aggregation: 61(7) Percent

## CLLRMKSAC (OTHER INFORMATION: Description of Artificial Sequence:Synthetic) [SEQ ID NO: 46]
[1]; Table 4, JY cell aggregation
  Percent Inhibition: 90(4) Percent
[1]; [4]
  Percent JY Aggregation: 6(2) Percent
[1]
  Inhibition of LFA-1/ICAM-1 mediated JY cell aggregation compared to SEQ ID NO: 1 (in words): greater inhibition
[2]
  Percent Inhibition of firm attachment of neutrophils: 66(0) Percent
  Firmly attached neutrophils, Cells/mm^2: 283(0) Cells/mm^2
[2]; parallel plate flow chamber
  Inhibition of attachment of neutrophils to activated endothelium compared to SEQ ID NO: 1 (in words): greater inhibition
  Neutrophil-binding to endothelium (in words): block

## CLLRMASIC (OTHER INFORMATION: Description of Artificial Sequence:Synthetic) [SEQ ID NO: 38]
[1]; Table 3, JY cell aggregation
  Percent Inhibition: 11(12) Percent
[1]; [5]
  Percent JY Aggregation: 68(9) Percent
[1]
  Inhibition of LFA-1/ICAM-1 mediated JY cell aggregation compared to SEQ ID NO: 1 (in words): Loss of inhibitory function

## CLLKMRSAC (OTHER INFORMATION: Description of Artificial Sequence:Synthetic) [SEQ ID NO: 45]
[1]; Table 4, JY cell aggregation
  Percent Inhibition: 94(3) Percent
[1]; [4]
  Percent JY Aggregation: 3(2) Percent
[1]
  Inhibition of LFA-1/ICAM-1 mediated JY cell aggregation compared to SEQ ID NO: 1 (in words): greater inhibition

## CLMIRMLRC (OTHER INFORMATION: Description of Artificial Sequence:Synthetic) [SEQ ID NO: 33, reference compound]
[1]; concentration of 1 mM
  Aggregation of JY cells (FIG. 1, in words): ineffective

## CALRMRSIC (OTHER INFORMATION: Description of Artificial Sequence:Synthetic) [SEQ ID NO: 34]
[1]; Table 3, JY cell aggregation
  Percent Inhibition: 7(19) Percent
[1]; [5]
  Percent JY Aggregation: 71(15) Percent
[1]
  Inhibition of LFA-1/ICAM-1 mediated JY cell aggregation compared to SEQ ID NO: 1 (in words): Loss of inhibitory function

## CLVRMRSAC (OTHER INFORMATION: Description of Artificial Sequence:Synthetic) [SEQ ID NO: 41]
[1]; Table 4, JY cell aggregation
  Percent Inhibition: 0(1) Percent
[1]; [4]
  Percent JY Aggregation: 55(1) Percent

## CC[C@H](C)[C@@H]1NC(=O)[C@H](CCCNC(=N)N)NC(=O)[C@H](CO)NC(=O)[C@H](CC(C)C)NC(=O)[C@H](CCCNC(=N)N)NC(=O)[C@H](CC(C)C)NC(=O)[C@@H](N)CSSC[C@@H](C(=O)O)NC(=O)[C@H](CCSC)NC1=O [SEQ ID NO: 56, CLRLSRIMC, reference compound] (H-CLRLSRIMC-OH; disulfide 1-9 (inferred))
[3]
  Aqueous solubility relative to randomized sequence SEQ ID NO: 33: greater aqueous solubility

## CLARMRSIC (OTHER INFORMATION: Description of Artificial Sequence:Synthetic) [SEQ ID NO: 35]
[1]; Table 3, JY cell aggregation
  Percent Inhibition: 9(22) Percent
[1]; [5]
  Percent JY Aggregation: 69(17) Percent
[1]
  Inhibition of LFA-1/ICAM-1 mediated JY cell aggregation compared to SEQ ID NO: 1 (in words): Loss of inhibitory function

## CLLRMRSAC (OTHER INFORMATION: Description of Artificial Sequence:Synthetic) [SEQ ID NO: 40]
[1]; Table 3, JY cell aggregation
  Percent Inhibition: 61(17) Percent
[1]; [5]
  Percent JY Aggregation: 29(13) Percent
[1]
  Inhibition of LFA-1/ICAM-1 mediated JY cell aggregation compared to SEQ ID NO: 1 (in words): more potent antagonist

## CC[C@H](C)[C@@H]1NC(=O)[C@H](CO)NC(=O)[C@H](CCCNC(=N)N)NC(=O)[C@H](CCSC)NC(=O)[C@H](C)NC(=O)[C@H](CC(C)C)NC(=O)[C@H](CC(C)C)NC(=O)[C@@H](N)CSSC[C@@H](C(=O)O)NC1=O [SEQ ID NO: 36, CLLAMRSIC] (H-CLLAMRSIC-OH; disulfide 1-9)
[1]
  Inhibition of LFA-1/ICAM-1 mediated JY cell aggregation compared to SEQ ID NO: 1 (in words): Loss of inhibitory function
[3]; at 1 nm
  Solubility in aqueous solution: Not Soluble

## CC[C@H](C)[C@@H]1NC(=O)[C@H](CO)NC(=O)[C@H](CCCNC(=N)N)NC(=O)[C@H](CCSC)NC(=O)[C@H](CCCNC(=N)N)NC(=O)[C@H](CC(C)C)NC(=O)[C@H](CC(C)C)NC(=O)[C@@H](N)CSSC[C@@H](C(=O)O)NC1=O [SEQ ID NO: 1, CLLRMRSIC] (H-CLLRMRSIC-OH; disulfide 1-9)
[1]; Table 3, JY cell aggregation
  Percent Inhibition: 46(11) Percent
[1]; [5]
  Percent JY Aggregation: 41(8) Percent
[1]; Table 4, JY cell aggregation
  Percent Inhibition: 45(9) Percent
[1]; [4]
  Percent JY Aggregation: 30(5) Percent
[1]; titration of 100 μM to 1 mM
  Aggregation of JY cells (FIG. 1, in words): inhibited
[2]
  Percent Inhibition of firm attachment of neutrophils: 47(15) Percent
  Firmly attached neutrophils, Cells/mm^2: 439(120) Cells/mm^2
[2]; parallel plate flow chamber
  Neutrophil-binding to endothelium (in words): block

## CLIRMRSAC (OTHER INFORMATION: Description of Artificial Sequence:Synthetic) [SEQ ID NO: 44]
[1]; Table 4, JY cell aggregation
  Percent Inhibition: 93(3) Percent
[1]; [4]
  Percent JY Aggregation: 4(2) Percent
[1]
  Inhibition of LFA-1/ICAM-1 mediated JY cell aggregation compared to SEQ ID NO: 1 (in words): greater inhibition
